Assay results: patent publication US12568972B2, “Pyridazinol compounds and derivatives, preparation methods, herbicidal compositions and applications thereof” (Qingdao Kingagroot Chemical Compound Co., Ltd., priority 2018, dated 2026)

Key:
Assay in all cases: Post-emergence test, weed control effect
Format in all cases: in vivo
Galium aparine = conditions: 504 h, after 3 weeks, fresh weight inhibition, read-out: activity level of harmful plant destruction (growth inhibition rate), Galium aparine
Outline: (§1)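 Score 0-10 (10 = completely dead, 1 = below 20%, 0 = no effect) from fresh-weight growth inhibition, read 3 weeks after a post-emergence spray. Greenhouse pot plants at 2-3 leaves; spray solution acetone/Tween-80/water with 80% vegetable oil methyl ester synergist at 1500 g/ha.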

Rorippa indica = conditions: after 3 weeks; for inhibition at 300 g/ha / inhibition at 150 g/ha: Rorippa indica, 504 h, fresh weight inhibition, read-out: activity level of harmful plant destruction (growth inhibition rate), Rorippa indica
Outline: as §1

Echinochloa crus-galli = conditions: 504 h, after 3 weeks, fresh weight inhibition, read-out: activity level of harmful plant destruction (growth inhibition rate), Echinochloa crus-galli
Outline: as §1

Setaria viridis = conditions: 504 h, after 3 weeks, fresh weight inhibition, read-out: activity level of harmful plant destruction (growth inhibition rate), Setaria viridis
Outline: as §1

Chenopodiaceae = conditions: after 3 weeks; for inhibition at 300 g/ha / inhibition at 150 g/ha: 504 h, fresh weight inhibition, read-out: activity level of harmful plant destruction (growth inhibition rate), Chenopodiaceae
Outline: as §1

Amaranthus retroflexus = conditions: after 3 weeks
Outline: as §1

Veronica polita = conditions: after 3 weeks; for inhibition at 300 g/ha / inhibition at 150 g/ha: Veronica polita, 504 h, fresh weight inhibition, read-out: activity level of harmful plant destruction (growth inhibition rate), Veronica polita
Outline: as §1

| SMILES | inhibition at 300 g/ha (Galium aparine) | inhibition at 300 g/ha (Rorippa indica) | weed control effect (activity level), Rorippa indica (Rorippa indica; dose 2000 g/ha) | inhibition at 300 g/ha (Echinochloa crus-galli) | inhibition at 300 g/ha (Setaria viridis) | inhibition at 300 g/ha (Chenopodiaceae) | weed control effect (activity level), Chenopodiaceae (Chenopodiaceae; dose 2000 g/ha) | weed control effect (activity level), Amaranthus retroflexus (Amaranthus retroflexus; dose 2000 g/ha) | inhibition at 300 g/ha (Veronica polita) | weed control effect (activity level), Veronica polita (Veronica polita; dose 2000 g/ha) | further results |
| --- | --- | --- | --- | --- | --- | --- | --- | --- | --- | --- | --- |
| Oc1cc(C(F)(F)F)nnc1-c1ccc(F)nc1F [Compound 220] | 100% | 100% | 10 | 100% | 100% | 100% | 10 | 10 | 100% | 10 |  |
| Oc1cc(C(F)(F)F)nnc1-c1ccc(F)nc1 [Compound 207] | 100% | 100% | 10 | 100% | 100% | 100% | 10 | 10 | 100% | 10 |  |
| Oc1cc(C(F)(F)F)nnc1-c1cc(F)cc(F)c1 [Compound 35] | 90 to 100% | 100% |  | 100% | 100% | 100% |  |  | 100% |  | weed control effect (activity level), Rorippa indica (Rorippa indica; dose 1000 g/ha): 10; weed control effect (activity level), Chenopodiaceae (Chenopodiaceae; dose 1000 g/ha): 10; weed control effect (activity level), Amaranthus retroflexus (Amaranthus retroflexus; dose 1000 g/ha): 10; weed control effect (activity level), Veronica polita (Veronica polita; dose 1000 g/ha): 10 |
| Oc1cc(C(F)(F)F)nnc1-c1cccnc1F [Compound 733] | 100% | 100% |  | 100% | 100% | 100% |  |  | 100% |  | weed control effect (activity level), Rorippa indica (Rorippa indica; dose 1000 g/ha): 10; weed control effect (activity level), Chenopodiaceae (Chenopodiaceae; dose 1000 g/ha): 10; weed control effect (activity level), Amaranthus retroflexus (Amaranthus retroflexus; dose 1000 g/ha): 10; weed control effect (activity level), Veronica polita (Veronica polita; dose 1000 g/ha): 10 |
| Cc1cc(-c2nnc(C(F)(F)F)cc2O)n(C)n1 [Compound 779] | 100% | 100% |  | 100% | 100% | 100% |  |  | 100% |  | weed control effect (activity level), Rorippa indica (Rorippa indica; Dose 3000 g/ha): 10; weed control effect (activity level), Chenopodiaceae (Chenopodiaceae; Dose 3000 g/ha): 10; weed control effect (activity level), Amaranthus retroflexus (Amaranthus retroflexus; Dose 3000 g/ha): 10; weed control effect (activity level), Veronica polita (Veronica polita; Dose 3000 g/ha): 10 |
| CCCCCCCCOC(=O)Oc1cc(C(F)(F)F)nnc1-c1ccc(F)cc1 [Compound 1-39] |  |  |  |  |  |  |  |  |  |  | inhibition at 150 g/ha (Galium aparine): 100%; weed control effect, Rorippa indica (activity level) (Rorippa indica; Dose 3000 g/ha): 10; inhibition at 150 g/ha (Rorippa indica): 100%; inhibition at 150 g/ha (Echinochloa crus-galli): 100%; inhibition at 150 g/ha (Setaria viridis): 100%; inhibition at 150 g/ha (Chenopodiaceae): 100%; weed control effect, Chenopodiaceae (activity level) (Chenopodiaceae; Dose 3000 g/ha): 10; weed control effect, Amaranthus retroflexus (activity level) (Amaranthus retroflexus; Dose 3000 g/ha): 10; weed control effect, Veronica polita (activity level) (Veronica polita; Dose 3000 g/ha): 10; inhibition at 150 g/ha (Veronica polita): 100% |
| Oc1cc(C(F)(F)F)nnc1-c1cnn(C(F)F)c1 [Compound 844] |  |  | 10 |  |  |  | 10 | 10 |  | 10 | inhibition at 150 g/ha (Galium aparine): 100%; inhibition at 150 g/ha (Rorippa indica): 100%; inhibition at 150 g/ha (Echinochloa crus-galli): 100%; inhibition at 150 g/ha (Setaria viridis): 100%; inhibition at 150 g/ha (Chenopodiaceae): 100%; inhibition at 150 g/ha (Veronica polita): 100% |
